Test results as given in PubChem BioAssay (NCI).
Values joined by “and” are separate entries in the source; they are usually repeats but may differ in a detail not shown here. Equal values may be shown once.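 Method: 48-hour compound exposure of cells in 96-well plates, five concentrations, linear interpolation of endpoints. GI50 = concentration required for 50% inhibition of growth. The concentration for full growth arrest is given as TGI.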

Assays:
Experiment in all cases: DTP human tumour cell line panel, 48 h
HCT-116 colon = system: HCT-116 colon
KM12 colon = system: KM12 colon
LOX IMVI melanoma = system: LOX IMVI melanoma
SF-268 CNS = system: SF-268 CNS
SF-295 CNS = system: SF-295 CNS
TK-10 renal = system: TK-10 renal
UACC-62 melanoma = system: UACC-62 melanoma
UO-31 renal = system: UO-31 renal
A498 renal = system: A498 renal
MALME-3M melanoma = system: MALME-3M melanoma

| SMILES | TGI (HCT-116 colon) | TGI (KM12 colon) | TGI (LOX IMVI melanoma) | TGI (SF-268 CNS) | TGI (SF-295 CNS) | TGI (TK-10 renal) | TGI (UACC-62 melanoma) | TGI (UO-31 renal) | TGI (A498 renal) | TGI (MALME-3M melanoma) | GI50 (MALME-3M melanoma) | GI50 (SF-295 CNS) | GI50 (UACC-62 melanoma) | GI50 (HCT-116 colon) | GI50 (KM12 colon) | GI50 (LOX IMVI melanoma) | GI50 (SF-268 CNS) | GI50 (TK-10 renal) | GI50 (UO-31 renal) |
| --- | --- | --- | --- | --- | --- | --- | --- | --- | --- | --- | --- | --- | --- | --- | --- | --- | --- | --- | --- |
| COc1ccc2oc(=O)c(-c3cc4c(c(C)n3)c(=O)oc3ccc(OC)cc34)cc2c1 | > 100 µM | > 100 µM | > 100 µM | > 100 µM | > 100 µM | > 100 µM | > 100 µM | > 100 µM |  |  |  |  |  |  |  |  |  |  |  |
| CN(C)c1cccc2c(S(=O)(=O)NCCN)cccc12 | > 100 µM | > 100 µM | > 100 µM | > 100 µM | > 100 µM |  | > 100 µM | > 100 µM | 69.8 µM | > 100 µM |  |  |  |  |  |  |  |  |  |
| O=C(Nc1cccc2ccccc12)c1cc2ccccc2oc1=O | > 100 µM | > 100 µM | > 100 µM | > 100 µM |  |  | > 100 µM |  | > 100 µM | > 100 µM |  |  |  |  |  |  |  |  |  |
| Cc1ccc(NC(=O)CC/C(CC(=O)C(C)(C)C)=N/NC(=O)c2cc3ccccc3cc2O)cc1C | > 100 µM | > 100 µM | 62.9 µM | > 100 µM | > 100 µM |  | 66 µM | > 100 µM |  | > 100 µM |  |  |  |  |  |  |  |  |  |
| COC(=O)C(Cc1ccccc1)NC(=O)C(CNC(=O)OCc1ccccc1)C(=O)OCc1ccccc1 (centres undefined) | > 100 µM | > 100 µM |  |  | > 100 µM and 80.2 µM |  | > 100 µM and 85.8 µM | > 100 µM | > 100 µM | > 100 µM | > 100 µM and 44.4 µM | > 100 µM and 28.6 µM | 52.2 µM and 22.1 µM |  |  |  |  |  |  |
| O=C(O)C1CCC(=O)N1C(=O)COc1cc(Cl)c(Cl)cc1Cl (centres undefined) | > 100 µM | > 100 µM | > 100 µM | > 100 µM | > 100 µM | > 100 µM | > 100 µM | > 100 µM | > 100 µM |  |  |  |  |  |  |  |  |  |  |
| CCc1c(O)nc(Nc2nc3ccccc3[nH]2)[nH]c1=O | > 100 µM |  | > 100 µM | > 100 µM | > 100 µM | > 100 µM | > 100 µM | > 100 µM | > 100 µM | > 100 µM |  |  |  |  |  |  |  |  |  |
| COCOC1CCCC[C@@]1(OCCOCCO[C@@]1(c2ccccc2)CCCC[C@H]1OCOC)c1ccccc1 (some centres undefined) | > 100 µM | > 100 µM | > 100 µM | > 100 µM | > 100 µM | > 100 µM | > 100 µM | > 100 µM |  | > 100 µM |  |  |  |  |  |  |  |  |  |
| O=C(/C=C/c1ccccc1)c1cc(CN2CCOCC2)c(O)c(CN2CCOCC2)c1 | 31.3 µM | 33.1 µM | 19.5 µM | 46.6 µM | 34.8 µM | 55.6 µM | 39.5 µM | 31.3 µM | 28.2 µM |  |  |  |  |  |  |  |  |  |  |
| CC(=O)CCC1(C(=O)OCC(C)C)CCCC1=O (centres undefined) | > 100 µM | > 100 µM | > 100 µM | > 100 µM | > 100 µM | > 100 µM | > 100 µM | > 100 µM |  | > 100 µM |  |  |  |  |  |  |  |  |  |
| CC(C)(C)C(=O)c1c(O)c2ccccc2c2ccccc2c1=O | > 100 µM | > 100 µM | > 100 µM | > 100 µM | > 100 µM | > 100 µM | > 100 µM | > 100 µM | > 100 µM |  |  |  |  |  |  |  |  |  |  |
| CC(=O)OC12c3ccccc3C(c3ccccc31)C1C(=O)N(N=C(C)C)C(=O)C12 (centres undefined) | > 100 µM | > 100 µM | > 100 µM | > 100 µM | > 100 µM | > 100 µM | > 100 µM | > 100 µM |  | > 100 µM |  |  |  |  |  |  |  |  |  |
| O=c1c2[nH]cnc2n(-c2ccccc2)c(=S)n1-c1ccccc1 | > 100 µM | > 100 µM | > 100 µM | > 100 µM | > 100 µM | > 100 µM | > 100 µM | > 100 µM | > 100 µM |  |  |  |  |  |  |  |  |  |  |
| COC(=O)[C@H](C)NC(=O)[C@H](NS(=O)(=O)c1nc2ccccc2s1)c1ccccc1 | > 100 µM | 30.5 µM | 31.9 µM | 33.5 µM | > 100 µM | > 100 µM | 28.3 µM | 35.8 µM |  |  |  |  |  |  |  |  |  |  |  |
| COC(=O)CCC(C)[C@H]1CCC2C3CC[C@@H]4CC5(CC[C@]4(C)C3C[C@H](OC(C)=O)[C@@]21C)OOC1(CCCCC1)OO5 (some centres undefined) | > 100 µM | > 100 µM |  | > 100 µM | > 100 µM | > 100 µM | > 100 µM | 9.04 µM | > 100 µM | 60.3 µM |  |  |  |  |  |  |  |  |  |
| C=CCOC(C)(C)C1=CCC(C)CC1 (centres undefined) | > 100 µM | > 100 µM |  | > 100 µM | > 100 µM | > 100 µM | > 100 µM | > 100 µM | > 100 µM | > 100 µM |  |  |  |  |  |  |  |  |  |
| COc1cc(C2c3cc4c(cc3[C@@H](Nc3ccc(F)cc3)C3COC[C@H]23)OCO4)cc(OC)c1O (some centres undefined) | 7.9 µM | > 25 µM |  | > 25 µM | 5.32 µM | > 25 µM |  | 4.57 µM |  |  |  |  |  |  |  |  |  |  |  |
| COc1ccc(/C(C=O)=C(\Cl)c2ccc(OC)c(OC)c2)cc1 | > 100 µM |  | > 100 µM | > 100 µM | > 100 µM | > 100 µM | > 100 µM | > 100 µM | > 100 µM | > 100 µM |  |  |  |  |  |  |  |  |  |
| Cc1cccc2c1nc1n2C(=O)c2ccccc2-1 | > 100 µM | > 100 µM |  | > 100 µM | > 100 µM | > 100 µM | > 100 µM | > 100 µM |  | > 100 µM |  |  |  |  |  |  |  |  |  |
| CC(C)(NO)/C(=N\O)c1ccccc1 | > 10 µM | > 10 µM |  | > 10 µM | > 10 µM | > 10 µM |  | > 10 µM |  | > 10 µM |  |  |  |  |  |  |  |  |  |
| O=C1c2ccccc2-c2c1c1ccccc1c(=O)n2CCCNCCNCCCn1c2c(c3ccccc3c1=O)C(=O)c1ccccc1-2 | 0.163 µM | 0.415 µM | 0.355 µM | 2.5 µM | 2.32 µM | 2.08 µM | 1.88 µM |  |  | 2.27 µM | 0.681 µM | 0.0782 µM | 0.174 µM | < 0.01 µM | < 0.04 µM | < 0.01 µM | 0.0166 µM | 0.279 µM | 0.342 µM |
| O=S(Nc1ccccc1)c1ccc(Cl)cc1 (centres undefined) | > 100 µM | 59.9 µM | > 100 µM | 82.9 µM | > 100 µM | > 100 µM | 90 µM | > 100 µM |  | > 100 µM |  |  |  |  |  |  |  |  |  |
| CC1(C)N=C(/C(Cl)=[N+](/[O-])C(=O)c2ccc(Cl)cc2)C(C)(C)N1O | 32.5 µM | > 100 µM | 20.4 µM | 89.2 µM | > 100 µM | 38.8 µM |  | > 100 µM |  | 35.9 µM |  |  |  |  |  |  |  |  |  |
